{"source": "patent US7351728B2", "about": "“Oxazolyl-aryloxyacetic acid derivatives and their use as PPAR agonists” (Eli Lilly and Company, priority 2003, dated 2008)", "key": {"[1]": {"tested_on": "db/db mice", "assay": "Evaluation of glucose levels in db/db mice", "type": "in vivo", "conditions": "Mus musculus, 168 h; 30 mg/kg daily oral gavage 7 days, male db/db mice; 100% = lean values; read-out: Glucose Normalization %", "procedure": "Five week old male diabetic (db/db) mice [C57BlKs/j-m +/+ Lepr(db), Jackson Laboratory, Bar Harbor, Me.] or lean littermates (db+) were housed 6 per cage (10″×20″×8″ with aspen chip bedding) with food (Purina 5015) and water available at all times. After an acclimation period of 2 weeks, animals were individually identified by ear notches, weighed, and bled via the tail vein for determination of initial glucose levels. Blood was collected (100 μl) from unfasted animals by wrapping each mouse in a towel, cutting the tip of the tail with a scalpel, and milking blood from the tail into a heparinized capillary tube (Fisher) balanced on the edge of the bench. Sample was discharged into a heparinized microtainer with gel separator (VWR) and retained on ice. Plasma was obtained after centrifugation at 4° C. and glucose measured immediately. Remaining plasma was frozen until the completion of the experiment, when glucose and triglycerides were assayed in all samples. Animals were grouped based on initial glucose levels and body weights. Beginning the following morning, mice were dosed daily by oral gavage for 7 days using a 20 gauge, 1½″ curved disposable feeding needle. Treatments were test compounds (30 mg/kg), a positive control agent (30 mg/kg) or vehicle [1% carboxymethylcellulose (w/v)/0.25% Tween80 (w/v); 0.3 ml/mouse]. On day 7, mice were weighed and bled (tail vein) 3 hours after dosing. Twenty-four hours after the 7th dose (i.e., day 8), animals were bled again (tail vein). Samples obtained from conscious animals on days 0, 7 and 8 were assayed for glucose. After the 24 hour bleed, animals were weighed and dosed for the final time. Three hours after dosing on day 8, animals were anesthetized by inhalation of isoflurane and blood obtained via cardiac puncture (0.5-0.7 ml). Whole blood was transferred to serum separator tubes, chilled on ice and permitted to clot. Serum was obtained after centrifugation at 4° C. and frozen until analysis for compound levels. After sacrifice by cervical dislocation, the liver, heart and epididymal fat pads were excised and weighed.\nThe animals dosed with vehicle had average triglycerides values of 170-230 mg/dl, which were reduced by the positive PPARγ control (70-120 mg/dl with a mean reduction of 50%). Male db/db mice were hyperglycemic (average glucose of 680-730 mg/dl on the 7th day of treatment), while lean animals had average glucose levels between 190-230 mg/dl.\nGlucose was measured colorimetrically using commercially purchased reagents (Sigma #315-500). According to the manufacturers, the procedures were modified from published work (McGowan, M. W., Artiss, J. D., Strandbergh, D. R. & Zak, B. Clin Chem, 20:470-5 (1974) and Keston, A. Specific colorimetric enzymatic analytical reagents for glucose. Abstract of papers 129th Meeting ACS, 31C (1956).); and depend on the release of a mole of hydrogen peroxide for each mole of analyte, coupled with a color reaction first described by Trinder (Trinder, P. Determination of glucose in blood using glucose oxidase with an alternative oxygen acceptor. Ann Clin Biochem, 6:24 (1969)). The absorbance of the dye produced is linearly related to the analyte in the sample. The assays were further modified in our laboratory for use in a 96 well format. Standards (Sigma #339-11, Sigma #16-11, and Sigma #CC0534 for glucose triglycerides and total cholesterol, respectively), quality control plasma (Sigma # A2034), and samples (2 or 5 μl/well) were measured in duplicate using 200 μl of reagent. An additional aliquot of sample, pipetted to a third well and diluted in 200 μl water, provided a blank for each specimen. Plates were incubated at room temperature (18, 15, and 10 minutes for glucose, triglycerides and total cholesterol, respectively) on a plate shaker (DPC Micormix 5) and absorbance read at 500 nm (glucose and total cholesterol) or 540 nm (triglycerides) on a plate reader (Wallac Victor 1420). […]"}}, "data": [{"smiles": "Cc1oc(-c2ccccc2)nc1CCOc1ccc(OC(C)(C)C(=O)O)cc1", "note": "[Example 1, 2-Methyl-2-{4-[2-(5-methyl-2-phenyloxazol-4-yl)ethoxy]phenoxy}propionic acid]", "values": [{"measurement": "inhibition in vivo at 30 mg/kg", "setting": "[1]", "value": 38, "unit": "%"}]}, {"smiles": "Cc1oc(-c2ccccc2)nc1CCOc1ccc(OC(C)(C)C(=O)O)c2ccccc12", "note": "[Example 37, 2-Methyl-2-{4-[2-(5-methyl-2-phenyl-oxazol-4-yl)-ethoxy]-naphthalen-1-yloxy}-propionic acid]", "values": [{"measurement": "inhibition in vivo at 30 mg/kg", "setting": "[1]", "value": 56, "unit": "%"}]}, {"smiles": "CCCCc1cc(OC(C)(C)C(=O)O)ccc1OCCc1nc(-c2ccccc2)oc1C", "note": "[Example 31F, 2-{3-Butyl-4-[2-(5-methyl-2-phenyloxazol-4-yl)ethoxy]phenoxy}-2-methylpropionic acid]", "values": [{"measurement": "inhibition in vivo at 30 mg/kg", "setting": "[1]", "value": 77, "unit": "%"}]}, {"smiles": "Cc1oc(-c2ccccc2)nc1CCOc1ccc(OC(C)(C)C(=O)O)c2c1CCCC2", "note": "[Example 38, 2-Methyl-2-{4-[2-(5-methyl-2-phenyl-oxazol-4-yl)-ethoxy]-5,6,7,8-tetrahydro-naphthalen-1-yloxy}-propionic acid]", "values": [{"measurement": "inhibition in vivo at 30 mg/kg", "setting": "[1]", "value": 38, "unit": "%"}]}, {"smiles": "Cc1oc(-c2cccc(CCc3ccccc3)c2)nc1CCOc1ccc(OC(C)(C)C(=O)O)cc1", "note": "[Example 12A, 2-Methyl-2-(4-{2-[5-methyl-2-(3-phenethylphenyl)oxazol-4-yl]ethoxy}phenoxy)-propionic acid]", "values": [{"measurement": "inhibition in vivo at 30 mg/kg", "setting": "[1]", "value": 51, "unit": "%"}, {"measurement": "melting point", "value": "124 to 125", "unit": "°C"}]}, {"smiles": "Cc1oc(-c2cccc(Br)c2)nc1CCOc1ccc(OC(C)(C)C(=O)O)cc1", "note": "[Example 9A, 2-(4-{2-[2-(3-Bromophenyl)-5-methyloxazol-4-yl]ethoxy}phenoxy)-2-methylpropionic acid]", "values": [{"measurement": "inhibition in vivo at 30 mg/kg", "setting": "[1]", "value": 86, "unit": "%"}, {"measurement": "melting point", "value": "158 to 159", "unit": "°C"}]}, {"smiles": "Cc1oc(-c2ccccc2)nc1CCOc1ccc(OC(C)(C)C(=O)O)c(CCc2ccccc2)c1", "note": "[Example 30J, 2-Methyl-2-{4-[2-(5-methyl-2-phenyloxazol-4-yl)ethoxy]-2-phenethylphenoxy}propionic acid]", "values": [{"measurement": "inhibition in vivo at 30 mg/kg", "setting": "[1]", "value": 58, "unit": "%"}]}, {"smiles": "Cc1oc(-c2ccccc2)nc1CCOc1ccc(OC(C)(C)C(=O)O)c(Cc2ccccc2)c1", "note": "[Example 32, 2-{2-Benzyl-4-[2-(5-methyl-2-phenyloxazol-4-yl)ethoxy]phenoxy}-2-methylpropionic acid]", "values": [{"measurement": "inhibition in vivo at 30 mg/kg", "setting": "[1]", "value": 47, "unit": "%"}]}, {"smiles": "Cc1oc(-c2ccccc2)nc1CCOc1ccc(OC(C)(C)C(=O)O)c(CC(C)C)c1", "note": "[Example 30C, 2-{2-Isobutyl-4-[2-(5-methyl-2-phenyloxazol-4-yl)ethoxy]phenoxy}-2-methylpropionic acid]", "values": [{"measurement": "inhibition in vivo at 30 mg/kg", "setting": "[1]", "value": 48, "unit": "%"}]}, {"smiles": "CCCc1cc(OCCc2nc(-c3ccccc3)oc2C)ccc1OCC(=O)O", "note": "[Example 26, {4-[2-(5-methyl-2-phenyl-oxazol-4-yl)ethoxy]-2-propylphenoxy}acetic acid]", "values": [{"measurement": "inhibition in vivo at 30 mg/kg", "setting": "[1]", "value": 42, "unit": "%"}]}, {"smiles": "CCc1cc(OCCc2nc(-c3ccccc3)oc2C)ccc1OC(C)(C)C(=O)O", "note": "[Example 30A, 2-{2-Ethyl-4-[2-(5-methyl-2-phenyloxazol-4-yl)ethoxy]phenoxy}2-methylpropionic acid]", "values": [{"measurement": "inhibition in vivo at 30 mg/kg", "setting": "[1]", "value": 76, "unit": "%"}]}, {"smiles": "Cc1oc(-c2ccc(OC3CCCCC3)cc2)nc1CCOc1ccc(OC(C)(C)C(=O)O)cc1", "note": "[Example 21, 2-(4-{2-[2-(4-Cyclohexyloxy-phenyl)-5-methyl-oxazol-4-yl]-ethoxy}-phenoxy)-2-methyl-propionic acid]", "values": [{"measurement": "inhibition in vivo at 30 mg/kg", "setting": "[1]", "value": 23, "unit": "%"}]}, {"smiles": "CCCc1cc(OCCc2nc(-c3ccccc3)oc2C)ccc1OC(C)(C)C(=O)O", "note": "[Example 26A, 2-Methyl-2-{4-[2-(5-methyl-2-phenyloxazol-4-yl)ethoxy]-2-propylphenoxy}propionic acid]", "values": [{"measurement": "inhibition in vivo at 30 mg/kg", "setting": "[1]", "value": 77, "unit": "%"}]}, {"smiles": "CCc1ccc(-c2nc(CCOc3ccc(OC(C)(C)C(=O)O)cc3)c(C)o2)cc1", "note": "[Example 13, 2-(4-{2-[2-(4-Ethylphenyl)-5-methyloxazol-4-yl]ethoxy}phenoxy)-2-methylpropionic acid]", "values": [{"measurement": "inhibition in vivo at 30 mg/kg", "setting": "[1]", "value": 65, "unit": "%"}]}, {"smiles": "CCc1cccc(-c2nc(CCOc3ccc(OC(C)(C)C(=O)O)cc3)c(C)o2)c1", "note": "[Example 12, 2-(4-{2-[2-(3-Ethylphenyl)-5-methyloxazol-4-yl]ethoxy}phenoxy)-2-methylpropionic acid]", "values": [{"measurement": "inhibition in vivo at 30 mg/kg", "setting": "[1]", "value": 101, "unit": "%"}, {"measurement": "melting point", "value": "134 to 135", "unit": "°C"}]}, {"smiles": "CCCc1cc(OC(C)(C)C(=O)O)ccc1OCCc1nc(-c2ccccc2)oc1C", "note": "[Example 27A, 2-Methyl-2-{4-[2-(5-methyl-2-phenyloxazol-4-yl)ethoxy]-3-propylphenoxy}propionic acid]", "values": [{"measurement": "inhibition in vivo at 30 mg/kg", "setting": "[1]", "value": 62, "unit": "%"}]}, {"smiles": "Cc1cc(OCCc2nc(-c3ccccc3)oc2C)ccc1OC(C)(C)C(=O)O", "note": "[Example 24, 2-Methyl-2-{2-methyl-4-[2-(5-methyl-2-phenyloxazol-4-yl)ethoxy]phenoxy}propionic acid]", "values": [{"measurement": "inhibition in vivo at 30 mg/kg", "setting": "[1]", "value": 72, "unit": "%"}, {"measurement": "melting point", "value": 117, "unit": "°C"}]}]}
